Three compounds from patent publication US20020147353A1, “Novel flavonoids” (Vereniging christelijk wetenschappelijk anderwijs, priority 1999, published 2002) can be followed below.

Series [1] has as its system iron/ascorbate induced lipid peroxidation. The series can be described thus: Lipid peroxidation (LPO) model, heat-treated hepatic microsomes, TBA reactive substances. The note with it: rat hepatic microsomes, reaction started with 10 uM FeSO4; mean ± s.e.m., n = 3-5. Type of series: biochemical. On the procedure:
Experiment 1: Lipid Peroxidation Model
Preparation of hepatic microsomes.
Male Wistar rats (200-220 g) obtained from Harlan Nederland B.V. (Horst, The Netherlands) were sacrificed by decapitation. Livers were removed and homogenized in ice-cold phosphate buffer (50 mM+0.1 mM EDTA, pH=7.4, 1:2 w/v). The homogenate was centrifuged at 10 000× g (20 min at 4° C.). Subsequently, the supernatant was centrifuged at 100 000× g for 60 min (4° C.). The pellet was resuspended in phosphate buffer and centrifuged again at 100 000× g (60 min, 4° C.). Finally the microsomal pellet was resuspended in phosphate buffer (2 g liver/ml) and 1 mL aliquots were stored at −80° C.
Microsomes were thawed and resuspended in ice-cold Tris-HCl buffer (50 mM, pH=7.4 at 37° C.) and washed by centrifugation. The pellet was resuspended in 2 mL 50 mM Tris-HCl buffer and heated to 100° C. for at least 2 min to remove all enzymatic factors just before resuspending and diluting it in ice-cold Tris buffer to 1.5 mg/mL.
Stock solutions of the flavonoids were freshly prepared in nitrogen-purged DMSO and nanopure water (1:1) just before use. The reaction was started by adding 10 uM freshly prepared FeSO4 in nitrogen-purged nanopure water. LPO was assayed by measuring thiobarbituric acid (TBA) reactive substances. At t=0, 5, 10, 15, 30, 45 and 60 min an 0.3 mL aliquot of the incubation was mixed with 2 mL of an ice-cold TBA-trichloroacetic acid-HCl-butylhydroxytoluene (BHT) solution to stop the reaction. After heating and centrifugation the absorbance at 535 vs 600 nm was determined. The TBA-trichloroacetic acid-HCl-butylhydroxytoluene solution was prepared by dissolving 41.6 mg TBA/10 ml trichloroacetic acid (16.8% w/v in 0.125 N HCl). To 10 ml TBA-trichloroacetic acid-HCl 1 ml BHT (1.5 mg/ml ethanol) was added.
The IC50 was determined by measuring the % LPO inhibition at several concentrations and interpolating the 50% inhibition point.

Series [2] in a line: TEAC model (Trolox equivalent antioxidant capacity). The conditions noted are these: concentration of Trolox equivalent to 1 mM test compound; mean ± S.D., n = 3-5. On the procedure:
A solution of 2,2′-azino-bis(3-ethylbenzthiazoline-6-sulfonic acid) (1.23 mg/mL) and azobisamidinepropane (3.96 mg/mL) in 50 mM phosphate buffer (pH=7.4) was heated at 70° C. for 20 min. The amount of ABTS radicals was measured by determination of the absorbance at 734 nm.
Stock solutions of the flavonoids were freshly prepared in nitrogen-purged DMSO and nanopure water (1:1) just before use. A calibration curve of Trolox ((+/−)-6-hydroxy-2,5,7,8-tetramethyl-chroman-2-carboxylic acid) was made in a concentration range from 0 to 20 μM. A mixture of 50 μL test compound and 950 μL ABTS^−+ solution was incubated at 37° C. for 5 min. Subsequently the absorbance at 734 nm was determined on a UV/VIS Spectrophotometer.
The antioxidant-induced decrease in absorbance is directly related to the antioxidant capacity of the compound (solution) being tested.
The Trolox equivalent antioxidant capacity (TEAC) is defined as the concentration (mM) of Trolox having an antioxidant capacity equivalent to 1 mM of the test compound.

Series [3] deals with isolated mouse left atrium. The series can be described thus: Isolated mouse left atrium model: protection against doxorubicin-induced negative inotropy. The note with it: 250 μM flavonoid with 35 μM doxorubicin, electrically paced mouse left atrium. As for the experimental part:
Experiment 3: Isolated Mouse Left Atrium Model
In order to determine the cardioprotective properties of the compounds in vitro, the protection against doxorubicin-induced negative inotropy was studied, using the isolated mouse left atrium model.
The example compounds were tested for their protective effect on the negative inotropic action of doxorubicin on the isolated mouse left atrium. The testing model has been described earlier (de Jong et al.Ress Comm Chem Pathol Pharmacol 68, 275-289 (1990). In short, left atria were isolated from male Balb/c mice (18-22 g) and stimulated with square wave pulses of 3 ms duration at a frequency of 4 Hz. Incubation with […] doxorubicin causes a decrease in inotropy of 50% (after 1 h). Atria were incubated with 35 μM doxorubicin and 250 μM flavonoid. Inotropy was measured and expressed as % basal contractile force relative to t=0.

Series [4] deals with doxorubicin-induced cardiotoxicity. The series can be described thus: Protection against doxorubicin-induced cardiotoxicity in vivo (ST-interval in ECG, telemetry). The conditions noted are these: mice.
Series [5] relates to alloxan-induced diabetic rats. The series can be described thus: Antidiabetic action in alloxan-induced diabetic rats. Type of series: in vivo. The conditions noted are these: 68 mg/kg i.p. for two weeks. As for the experimental part:
In order to study the antidiabetic action of compound 9i (see FIG. 1 and the section “syntheses” above), the compound was studied in alloxan-induced diabetic rats. […] These diabetic rats were subsequently treated with compound 9i for two weeks (at 68 mg/kg, i.p.).

Series [6] deals with guinea pigs exposed to ozone. The series can be described thus: Ozone exposure model for COPD, pulmonary neutrophil influx. Type of series: in vivo. The conditions noted are these: 1 ppm ozone 12 h then 12 h air, 68 mg/kg i.p. From the text:
Chronic Obstructive Pulmonary Disease is associated with oxidative stress. There are strong indications that antioxidant therapy may be beneficial in COPD ([…] et al., Am. J. Resp. Crit. Care Med. 156, 341-358 (1997)). Not only the number of exacerbations decreases, but also the progressive decrease in lung function becomes less severe under treatment with an antioxidant like N-acetylcysteine. An animal model for COPD is ozone exposure. In contrast to asthma, COPD is characterized by a neutrophil influx. […] We studied the protective effect of compound 9i in this ozone exposure model. […] To this end compound 9[…].) was given (24 h, 12 h before ozone exposure and daily during the exposure to ozone/air) to guinea pigs that were exposed to 1 ppm ozone for 12 h which was followed by 12 h of air.

For another series, the system named is MCF-7 cells. The series can be described thus: Interference with antitumor activity of doxorubicin, MTT assay. Type of series: cell-based. As for the experimental part: (§1) Experiment 5: Interference with the Antitumor Activity of Doxorubicin Because of the possible use of these compounds as adjuvants in the chemotherapy, it was checked whether the compounds influenced the negative effect of doxorubicin on cell growth. […] This observation further underlined the use of these compounds as adjuvant therapy in the protection of the side effects of cytostatics. On day 0 cultured OVCAR-3, MCF-7 and A2780 cells were plated at a density of 5000 cells/well for OCAR-3 and MCF-7 and 3000 cells/well for A2780 cells. […] After incubation of 96 h at 37° C. (day 5), growth inhibitory effects were evaluated using the standard MTT assay.
(In general: Tetrazolium dyes change colour on reduction, which living cells bring about.)

For the next series, the system named is A2780 cells. The description is as above. Type of series: cell-based. As for the experimental part:
as §1

In another series the test system is OVCAR-3 cells. The description is as above. Type of series: cell-based. As for the experimental part:
as §1

Where only a bound is given, the exact number is not on record here.

On to `COc1ccc2c(=O)cc(-c3ccc(O)c(O)c3)oc2c1` [Compound 8b, 3′,4′-dihydroxy-7-methoxyflavone], for which the melting point – broadly, the temperature, or range, at which the solid turns liquid – was more than 240 °C. The half-inhibitory concentration (IC50) – broadly, the concentration that gives 50% inhibition – in series [1] is 2500 ± 800 nM. Moreover, in series [2], the TEAC is reported as 3.3 ± 0.2 mM.
On to `O=c1c(O[C@@H]2O[C@H](CO)[C@@H](O)[C@H](O)[C@H]2O)c(-c2ccc(O)c(O)c2)oc2ccccc12` [Compound 9i, 3′,4′-dihydroxy-3-glucoseflavone], for which, in [3], the “Atrium protection (250 μM)” value is listed as 46%. Also, the “potency as protector against doxorubicin-induced cardiotoxicity relative to monoHER” value in series [4] (68 mg/kg i.p.) is “at least 5 times”. Moreover, the “protection against doxorubicin-induced cardiotoxicity in vivo (in words)” value in series [4] (9i 68 mg/kg i.p., doxorubicin 4 mg/kg i.v. weekly, 6 weeks) is on record as “significantly potent activity”. Further, the “glucose plasma level compared to controls” value in series [5] is “decrease in glucose plasma level”. Moreover, the IC50 in [1] is 2800 ± 900 nM. In addition, the TEAC in series [2] is 4.9 ± 0.3 mM. Moreover, the pulmonary neutrophil influx result in series [6] is “could be prevented”. The “9i 100 μM growth %” value was found to be 83.8% with MCF-7 cells (MCF-7, 100 μM, 96 h); 97.7% with A2780 cells (A2780, 100 μM, 96 h); 86.8% in the series on OVCAR-3 cells (OVCAR-3, 100 μM, 96 h).
Consider `COc1cccc2c1C(=O)c1c(O)c3c(c(O)c1C2=O)C[C@@](O)(C(=O)CO)C[C@@H]3O[C@H]1C[C@H](N)[C@H](O)[C@H](C)O1` [Dox, doxorubicin, reference compound], for which the IC50 in the series on MCF-7 cells (Homo sapiens, MCF7, MCF-7, 96 h, read-out: Dox IC50) was 4 nM; in the series with A2780 cells (Homo sapiens, A2780, 96 h, read-out: Dox IC50) it was 3.8 nM; with OVCAR-3 cells (Homo sapiens, OVCAR-3, 96 h, read-out: Dox IC50), 6.5 nM.
